“And” between values parts separate entries of the source, which are not always exact repeats. Identical values can stand only once.
What was measured:
[1] = system: Pseudomonas aeruginosa; assay: Antibacterial activity against Pseudomonas aeruginosa ATCC 27853 incubated for 18 hrs by agar dilution assay; type: functional
[2] = system: Rattus norvegicus; assay: Anti-inflammatory activity in Wistar rat assessed as inhibition of carrageenan-induced paw edema at 10 mg/kg, ip pretreated for 1 hr followed by carrageenan challenge and measured after 4 hr relative to control (reference value: 0.00 +/-0.4 %); type: functional; conditions: time 5 hrs
[3] = system: Rattus norvegicus; assay: Antiinflammatory activity in Wistar rat model of carrageenan-induced paw edema assessed as reduction in thickness of paw edema at 10 mg/kg, ip pretreated for 1 hr followed by carrageenan challenge and measured after 24 hrs (reference value: 0.83 +/-0.08 mm); type: functional; conditions: time 25 hrs
[4] = system: Rattus norvegicus; assay: Anti-inflammatory activity in Wistar rat assessed as inhibition of carrageenan-induced paw edema at 10 mg/kg, ip pretreated for 1 hr followed by carrageenan challenge and measured after 2 hr relative to control (reference value: 0.00 +/-0.03 %); type: functional; conditions: time 3 hrs
[5] = system: Splenocyte; assay: Immunomodulatory activity in Swiss albino mouse splenocytes assessed as cell viability at 10 uM by measuring stimulation index incubated for 72 hrs in presence of mitogenic stimulus phytohaemagglutinin by MTT assay (reference value: 1.00 +/- 0.24); type: functional
[6] = system: Peritoneal macrophage; assay: Antiinflammatory activity in […] mouse Peritoneal macrophages assessed as inhibition of LPS-induced NO production at 10 uM preincubated for 1 hr followed by LPS stimulation measured after 24 hrs by Griess method relative to control (reference value: 0.0 %); type: functional; set-up: scale not given: the % may be the effect or the level left; conditions: time 25 hrs
[7] = system: Rattus norvegicus; assay: Anti-inflammatory activity in Wistar rat assessed as inhibition of carrageenan-induced paw edema at 10 mg/kg, ip pretreated for 1 hr followed by carrageenan challenge and measured after 1 hr relative to control (reference value: 0.00 +/-0.02 %); type: functional; conditions: time 2 hrs
[8] = system: Rattus norvegicus; assay: Anti-inflammatory activity in Wistar rat assessed as inhibition of carrageenan-induced paw edema at 10 mg/kg, ip pretreated for 1 hr followed by carrageenan challenge and measured after 4 hr relative to indomethacin; type: functional; conditions: time 5 hrs
[9] = system: Candida albicans; assay: Antifungal activity against Candida albicans incubated for 18 to 24 hrs by CLSI method; type: functional; conditions: time 18-24 hrs
[10] = system: Staphylococcus aureus; assay: Antibacterial activity against Staphylococcus aureus ATCC 25923 incubated for 18 hrs by agar dilution method; type: functional
[11] = system: Splenocyte; assay: Immunomodulatory activity in Swiss albino mouse splenocytes assessed as cell viability at 10 uM by measuring inhibition of stimulation index incubated for 72 hrs in presence of mitogenic stimulus phytohaemagglutinin by MTT assay relative to indomethacin; type: functional; conditions: read-out: Activity
[12] = system: Rattus norvegicus; assay: Anti-inflammatory activity in Wistar rat assessed as inhibition of carrageenan-induced paw edema at 10 mg/kg, ip pretreated for 1 hr followed by carrageenan challenge and measured after 3 hr relative to control (reference value: 0.00 +/-0.1 %); type: functional; conditions: time 4 hrs
[13] = system: Rattus norvegicus; assay: Antiinflammatory activity in Wistar rat model of carrageenan-induced paw edema assessed as reduction in thickness of paw edema at 10 mg/kg, ip pretreated for 1 hr followed by carrageenan challenge and measured after 2 hrs (reference value: 2.06 +/-0.09 mm); type: functional; conditions: time 3 hrs
[14] = system: Salmonella typhimurium; assay: Antibacterial activity against Salmonella typhimurium ATCC 19430 incubated for 18 hrs by agar dilution assay; type: functional, Salmonella enterica subsp. enterica serovar Typhimurium; conditions: Salmonella enterica
[15] = system: Streptococcus pyogenes; assay: Antibacterial activity against Streptococcus pyogenes ATCC 19615 incubated for 18 hrs by agar dilution method; type: functional
[16] = system: Peritoneal macrophage; assay: Antiinflammatory activity in […] mouse Peritoneal macrophages assessed as reduction in LPS-induced NO production by measuring reduction in stimulation index at 10 uM preincubated for 1 hr followed by LPS stimulation measured after 24 hrs by Griess method (reference value: 27.31 +/- 2.56 uM); type: functional; conditions: time 25 hrs
[17] = system: Rattus norvegicus; assay: Antiinflammatory activity in Wistar rat model of carrageenan-induced paw edema assessed as reduction in thickness of paw edema at 10 mg/kg, ip pretreated for 1 hr followed by carrageenan challenge and measured after 3 hrs (reference value: 1.79 +/-0.07 mm); type: functional; conditions: time 4 hrs
[18] = system: Rattus norvegicus; assay: Antiinflammatory activity in Wistar rat model of carrageenan-induced paw edema assessed as reduction in thickness of paw edema at 10 mg/kg, ip pretreated for 1 hr followed by carrageenan challenge and measured after 4 hrs (reference value: 1.40 +/-0.10 mm); type: functional; conditions: time 5 hrs
[19] = system: Rattus norvegicus; assay: Antiinflammatory activity in Wistar rat model of carrageenan-induced paw edema assessed as reduction in thickness of paw edema at 10 mg/kg, ip pretreated for 1 hr followed by carrageenan challenge and measured after 1 hr (reference value: 2.41 +/-0.05 mm); type: functional; conditions: time 1 hr after carrageenan
[20] = system: Rattus norvegicus; assay: Anti-inflammatory activity in Wistar rat assessed as inhibition of carrageenan-induced paw edema at 10 mg/kg, ip pretreated for 1 hr followed by carrageenan challenge and measured after 24 hr relative to control (reference value: 0.00 +/-0.3 %); type: functional; conditions: time 25 hrs

Row | Compound | MIC [1] | inhibition in vivo at 10 mg/kg [2] [%] | Activity [3] [mm] | inhibition in vivo at 10 mg/kg [4] [%] | Activity_index [5] | Activity [6] [%] | inhibition in vivo at 10 mg/kg [7] [%] | inhibition in vivo at 10 mg/kg [8] [%] | MIC [9] | MIC [10] | viability at 10 µM [11] [%] | inhibition in vivo at 10 mg/kg [12] [%] | Activity [13] [mm] | MIC [14] | MIC [15] | Activity [16] [µM] | Activity [17] [mm] | Activity [18] [mm] | Activity [19] [mm] | inhibition in vivo at 10 mg/kg [20] [%]
1 | COc1cc(/C=C/C(=O)/C=C(O)/C=C/c2ccc(OC(=O)[C@@H](NC(=O)OCC3c4ccccc4-c4ccccc43)C(C)C)c(OC)c2)ccc1OC(=O)[C@@H](NC(=O)OCC1c2ccccc2-c2ccccc21)C(C)C | 0.5 µg/mL and 0.494 µM | 53 | 0.44 | 49 | 2.55 | 12.46 | 22 | 61 | 0.5 µg/mL and 0.494 µM | 0.25 µg/mL and 0.247 µM | 47.5 | 50 | 1.05 | 0.5 µg/mL and 0.494 µM | 0.5 µg/mL and 0.494 µM | 23.91 | 0.9 | 0.66 | 1.88 | 47
2 | COc1cc(/C=C/C(=O)/C=C(O)/C=C/c2ccc(OC(=O)[C@H](Cc3ccccc3)NC(=O)OCC3c4ccccc4-c4ccccc43)c(OC)c2)ccc1OC(=O)[C@H](Cc1ccccc1)NC(=O)OCC1c2ccccc2-c2ccccc21 | 2 µg/mL and 1.81 µM | 60 | 0.79 | 41 | 1.78 | 31.01 | 10 | 69 | 0.5 µg/mL and 0.452 µM | 0.25 µg/mL and 0.226 µM | 68.1 | 54 | 1.22 | 0.25 µg/mL and 0.226 µM | 0.125 µg/mL and 0.113 µM | 18.84 | 0.82 | 0.56 | 2.17 | 5
3 | COc1cc(/C=C/C(=O)/C=C(O)/C=C/c2ccc(OC(=O)[C@@H](C)NC(=O)OC(C)(C)C)c(OC)c2)ccc1OC(=O)[C@@H](C)NC(=O)OC(C)(C)C | 0.25 µg/mL and 0.352 µM | 42 | 0.52 | 29 | 2.07 | 23.82 | 22 | 48 | 0.5 µg/mL and 0.703 µM | 0.125 µg/mL and 0.176 µM | 58.3 | 39 | 1.46 | 0.25 µg/mL and 0.352 µM | 1 µg/mL and 1.41 µM | 20.81 | 1.09 | 0.81 | 1.87 | 37
4 | COc1cc(/C=C/C(=O)/C=C(O)/C=C/c2ccc(OC(=O)[C@H](Cc3c[nH]c4ccccc34)NC(=O)OCc3ccccc3)c(OC)c2)ccc1OC(=O)[C@H](Cc1c[nH]c2ccccc12)NC(=O)OCc1ccccc1 | 0.25 µg/mL and 0.248 µM | 12 | 0.82 | 28 | 2.6 | 11.08 | 37 | 14 | 1 µg/mL and 0.991 µM | 0.125 µg/mL and 0.124 µM | 46.5 | 24 | 1.48 | 0.125 µg/mL and 0.124 µM | 0.5 µg/mL and 0.496 µM | 24.28 | 1.36 | 1.23 | 1.52 | 1
5 | COc1cc(/C=C/C(=O)/C=C(O)/C=C/c2ccc(OC(=O)[C@H](C)NC(=O)OCC3c4ccccc4-c4ccccc43)c(OC)c2)ccc1OC(=O)[C@H](C)NC(=O)OCC1c2ccccc2-c2ccccc21 | 0.25 µg/mL and 0.262 µM | 56 | 0.41 | 23 | 2.22 | 20.22 | 12 | 64 | 1 µg/mL and 1.05 µM | 0.5 µg/mL and 0.524 µM | 54.4 | 43 | 1.59 | 0.25 µg/mL and 0.262 µM | 0.5 µg/mL and 0.524 µM | 21.79 | 1.02 | 0.62 | 2.12 | 51
6 | COc1cc(/C=C/C(=O)/C=C(O)/C=C/c2ccc(OC(=O)C(C)NC(=O)OC(C)(C)C)c(OC)c2)ccc1OC(=O)C(C)NC(=O)OC(C)(C)C (stereo not given) | 0.25 µg/mL and 0.352 µM | 40 | 0.59 | 16 | 1.78 | 30.88 | 11 | 46 | 0.5 µg/mL and 0.703 µM | 0.25 µg/mL and 0.352 µM | 67.9 | 25 | 1.74 | 0.25 µg/mL and 0.352 µM | 0.125 µg/mL and 0.176 µM | 18.88 | 1.34 | 0.84 | 2.15 | 29
7 | COc1cc(/C=C/C(=O)/C=C(O)/C=C/c2ccc(OC(=O)CNC(=O)OC(C)(C)C)c(OC)c2)ccc1OC(=O)CNC(=O)OC(C)(C)C | 0.25 µg/mL and 0.366 µM | 48 | 0.44 | 44 | 2.11 | 33.65 | 43 | 55 | 0.5 µg/mL and 0.732 µM | 0.25 µg/mL and 0.366 µM | 57.4 | 44 | 1.16 | 0.125 µg/mL and 0.183 µM | 1 µg/mL and 1.47 µM | 18.12 | 1 | 0.73 | 1.37 | 47
8 | COc1cc(/C=C/C(=O)/C=C(O)/C=C/c2ccc(OC(=O)[C@H](C)NC(=O)OC(C)(C)C)c(OC)c2)ccc1OC(=O)[C@H](C)NC(=O)OC(C)(C)C | 1 µg/mL and 1.41 µM | 28 | 0.79 | 11 | 2.71 | 22.02 | 6 | 32 | 1 µg/mL and 1.41 µM | 0.125 µg/mL and 0.176 µM | 44.6 | 20 | 1.84 | 0.125 µg/mL and 0.176 µM | 0.25 µg/mL and 0.352 µM | 21.3 | 1.44 | 1.04 | 2.26 | 5
